Experiment [1] can be described thus: Antibiotics-Microbial assay, USP <81>. The conditions noted are these: final product of the 2 kg scale cGMP process (GMP DS Lot 1); specification ≥900 IU/mg. The experiment is classed as cell-based. An excerpt:
Materials and Methods. […] Identification by IR spectrum, USP <197K> • 2. Antibiotics-Microbial assay, USP <81>

In experiment [2] the test system is ovarian cancer cell line SKOV3. Briefly: cell viability assay, crystal violet cell staining. The experiment is classed as cell-based. The note with it: 48 hours treatment. The procedure: Commercial thiostrepton (TS) starting material (TS Non-GMP) and ultrapure TS (TS GMP) were diluted to 10 mM in sterile DMSO. Lots of TS were evaluated in a cell viability assay using the ovarian cancer cell line SKOV3 purchased from ATCC. Two replicate plates containing technical duplicates were set up for screening. Cells were plated at a density of 2,500 cells/well in 96-well plates and allowed to adhere for 24 hours prior to treatment. A starting concentration of 20 μM for each TS solution was serial diluted 1:1 covering a concentration range of 20 μM to 20 nM. Cells were incubated with treatments for 48 hours prior to fixation with 3% formaldehyde and crystal violet cell staining to determine residual cells remaining (100%=no cell death, 0%=complete cell death). FIG. 4. EC50 values (the concentration required to kill 50% of cells) were determined using a variable slope least square fit non-linear regression. FIG. 5.

One compound from patent US20250282816A1, “THIOSTREPTON COMPOSITIONS AND PREPARATION THEREOF” (RS Oncology, LLC, priority 2021, published 2025) can be followed below.

Consider `C=C(NC(=O)C(=C)NC(=O)c1csc(C2=N[C@@H]3c4csc(n4)[C@H]4NC(=O)c5csc(n5)[C@H]([C@](C)(O)[C@@H](C)O)NC(=O)[C@H]5CSC(=N5)/C(=C/C)NC(=O)[C@H]([C@@H](C)O)NC(=O)c5csc(n5)[C@]3(CC2)NC(=O)[C@H](C)NC(=O)C(=C)NC(=O)[C@H](C)NC(=O)[C@H]([C@@H](C)CC)N[C@@H]2C=Cc3c([C@H](C)O)cc(nc3[C@H]2O)C(=O)O[C@@H]4C)n1)C(N)=O` [ultrapure TS, thiostrepton], for which the Antibiotics-Microbial assay in experiment [1] came out at 988 IU/mg. The “biological activity as measured by % cell death of cancer cells, compared with commercial TS” value in experiment [2] (20 μM to 20 nM, N=4 replicates (FIG. 4)) is “better biological activity”. Moreover, the “biological activity as measured by EC50 (the concentration required to kill 50% of cells), compared with commercial TS” value in experiment [2] (variable slope non-linear regression, N=4 replicates, p<0.0001 (FIG. 5)) is “better biological activity”.
